Results as given in US5500410A, “Substituted alkylamide derivatives of teicoplanin” (Gruppo Lepetit S.p.A., priority 1989, dated 1996).

Key:
Strep. pyogenes C 203 = experiment: In vivo test in mice septicemically infected with Strep. pyogenes C 203; conditions: Strep. pyogenes C 203 septicemia
Description: The ED50 values (mg/kg) of representative compounds of the invention in in vivo tests in mice septicemically infected with Strep. pyogenes. C 203, obtained according to the procedure described by V. Arioli et al. (Journal of Antibiotics 29, 511; 1976) are given in table III.

[1] = system: Streptococcus pyogenes C 203; experiment: In vitro MIC, two-fold dilution in microtiter; format: cell-based; conditions: 18-24 h at 37° C., inoculum about 10^4 CFU/ml
Protocol: (§1) Broth cultures are diluted enough so that the final inecuium is about 10^4 colony forming units/ml (CFU/ml).

[2] = system: Streptococcus pneumoniae UC 41; experiment: In vitro MIC, two-fold dilution in microtiter; format: cell-based; conditions: 18-24 h at 37° C., inoculum about 10^4 CFU/ml
Protocol: as §1

[3] = system: Staphylococcus haemolyticus L 602; experiment: In vitro MIC, two-fold dilution in microtiter; format: cell-based; conditions: 18-24 h at 37° C., inoculum about 10^4 CFU/ml
Protocol: as §1

[4] = system: Proteus vulgaris X19H ATCC 881; experiment: In vitro MIC, two-fold dilution in microtiter; format: cell-based; conditions: 18-24 h at 37° C., inoculum about 10^4 CFU/ml
Protocol: as §1

[5] = system: Escherichia coli SKF 12140; experiment: In vitro MIC, two-fold dilution in microtiter; format: cell-based; conditions: 18-24 h at 37° C., inoculum about 10^4 CFU/ml
Protocol: as §1

[6] = system: Streptococcus faecalis ATCC 7080; experiment: In vitro MIC, two-fold dilution in microtiter; format: cell-based; conditions: 18-24 h at 37° C., inoculum about 10^4 CFU/ml
Protocol: as §1

[7] = system: Staphylococcus aureus TOUR; experiment: In vitro MIC, two-fold dilution in microtiter; format: cell-based; conditions: 18-24 h at 37° C., inoculum about 10^4 CFU/ml
Protocol: as §1

[8] = system: Staphylococcus epidermidis ATCC 12228; experiment: In vitro MIC, two-fold dilution in microtiter; format: cell-based; conditions: 18-24 h at 37° C., inoculum about 10^4 CFU/ml
Protocol: as §1

[9] = system: Pseudomonas aeruginosa ATCC 10145; experiment: In vitro MIC, two-fold dilution in microtiter; format: cell-based; conditions: 18-24 h at 37° C., inoculum about 10^4 CFU/ml
Protocol: as §1

[10] = system: Pseudomonas aeruginosa Strain No. L 1498; experiment: MIC against multi-resistant clinical isolates of Pseudomonas aeruginosa; format: cell-based; conditions: multi-resistant clinical isolate
Protocol: as §1
(§2) The activity against some multi-resistant clinical isolates of Pseudomonas aeruginosa of compounds 22, 23, 25, 26, 27 and 29 is shown in Table II.

[11] = system: Pseudomonas aeruginosa Strain No. L 1138; experiment: as above; format: cell-based; conditions: multi-resistant clinical isolate
Protocol: as §1, §2

[12] = system: Pseudomonas aeruginosa Strain No. L 1348; experiment: as above; format: cell-based; conditions: multi-resistant clinical isolate
Protocol: as §1, §2

[13] = system: Pseudomonas aeruginosa Strain No. L 1533; experiment: as above; format: cell-based; conditions: multi-resistant clinical isolate
Protocol: as §1, §2

E. coli = experiment: Mice septicemically infected with E. coli; format: in vivo; conditions: E. coli septicemia

SMILES: CC(=O)NC1C(OC2c3ccc(c(Cl)c3)Oc3cc4cc(c3OC3OC(CO)C(O)C(O)C3NC(=O)CCCCCCC(C)C)Oc3ccc(cc3Cl)CC3NC(=O)C(N)c5ccc(O)c(c5)Oc5cc(O)cc(c5)C(NC3=O)C(=O)NC4C(=O)NC3C(=O)NC2C(=O)NC(C(=O)NCCCNCCCCNCCCN)c2cc(O)cc(OC4OC(CO)C(O)C(O)C4O)c2-c2cc3ccc2O)OC(CO)C(O)C1O (stereo not drawn) [Compound 11]
- ED50 p.o. (Strep. pyogenes C 203; p.o.): 81.2 mg/kg
- ED50 s.c. (Strep. pyogenes C 203; s.c.): 0.03 mg/kg
- MIC Streptococcus pyogenes C 203 [1]: 0.06 microgram/ml
- MIC Streptococcus pneumoniae UC 41 [2]: 0.12 microgram/ml
- MIC Staphylococcus haemolyticus L 602 [3]: 0.12 microgram/ml
- MIC Proteus vulgaris X19H ATCC 881 [4]: 128 microgram/ml
- MIC Escherichia coli SKF 12140 [5]: 64 microgram/ml
- MIC Streptococcus faecalis ATCC 7080 [6]: 0.12 microgram/ml
- MIC Staphylococcus aureus TOUR [7]: 0.12 microgram/ml
- MIC Staphylococcus epidermidis ATCC 12228 [8]: 0.06 microgram/ml
- MIC Pseudomonas aeruginosa ATCC 10145 [9]: 32 microgram/ml

SMILES: NCCCNCCCNC(=O)C1NC(=O)C2NC(=O)C(NC(=O)C3NC(=O)C4NC(=O)C(Cc5ccc(c(Cl)c5)Oc5cc3cc(c5O)Oc3ccc(cc3Cl)C2O)NC(=O)C(N)c2ccc(O)c(c2)Oc2cc(O)cc4c2)c2ccc(O)c(c2)-c2c(O)cc(O)cc21 (stereo not drawn) [Compound 22]
- MIC Pseudomonas aeruginosa L 1498 [10]: 64 microgram/ml
- MIC Pseudomonas aeruginosa L 1138 [11]: 64 microgram/ml
- MIC Pseudomonas aeruginosa L 1348 [12]: 4 microgram/ml
- MIC Pseudomonas aeruginosa L 1533 [13]: 64 microgram/ml
- MIC Streptococcus pyogenes C 203 [1]: 0.12 microgram/ml
- MIC Streptococcus pneumoniae UC 41 [2]: 0.12 microgram/ml
- MIC Staphylococcus haemolyticus L 602 [3]: 0.12 microgram/ml
- MIC Proteus vulgaris X19H ATCC 881 [4]: 32 microgram/ml
- MIC Escherichia coli SKF 12140 [5]: 1 microgram/ml
- MIC Streptococcus faecalis ATCC 7080 [6]: 0.12 microgram/ml
- MIC Staphylococcus aureus TOUR [7]: 0.06 microgram/ml
- MIC Staphylococcus epidermidis ATCC 12228 [8]: 0.03 microgram/ml
- MIC Pseudomonas aeruginosa ATCC 10145 [9]: 8 microgram/ml

SMILES: NCCCNCCNCCCNC(=O)C1NC(=O)C2NC(=O)C(NC(=O)C3NC(=O)C4NC(=O)C(Cc5ccc(c(Cl)c5)Oc5cc3cc(c5O)Oc3ccc(cc3Cl)C2O)NC(=O)C(N)c2ccc(O)c(c2)Oc2cc(O)cc4c2)c2ccc(O)c(c2)-c2c(O)cc(O)cc21 (stereo not drawn) [Compound 25]
- MIC Pseudomonas aeruginosa L 1498 [10]: 64 microgram/ml
- MIC Pseudomonas aeruginosa L 1138 [11]: 32 microgram/ml
- MIC Pseudomonas aeruginosa L 1348 [12]: 4 microgram/ml
- MIC Pseudomonas aeruginosa L 1533 [13]: 64 microgram/ml
- MIC Streptococcus pyogenes C 203 [1]: 0.06 microgram/ml
- MIC Streptococcus pneumoniae UC 41 [2]: 0.12 microgram/ml
- MIC Staphylococcus haemolyticus L 602 [3]: 0.12 microgram/ml
- MIC Proteus vulgaris X19H ATCC 881 [4]: 64 microgram/ml
- MIC Escherichia coli SKF 12140 [5]: 2 microgram/ml
- MIC Streptococcus faecalis ATCC 7080 [6]: 0.12 microgram/ml
- MIC Staphylococcus aureus TOUR [7]: 0.12 microgram/ml
- MIC Staphylococcus epidermidis ATCC 12228 [8]: 0.06 microgram/ml
- MIC Pseudomonas aeruginosa ATCC 10145 [9]: 16 microgram/ml

SMILES: NCCCNCCCNCCCNC(=O)C1NC(=O)C2NC(=O)C(NC(=O)C3NC(=O)C4NC(=O)C(Cc5ccc(c(Cl)c5)Oc5cc3cc(c5O)Oc3ccc(cc3Cl)C2O)NC(=O)C(N)c2ccc(O)c(c2)Oc2cc(O)cc4c2)c2ccc(O)c(c2)-c2c(O)cc(O)cc21 (stereo not drawn) [Compound 26]
- MIC Pseudomonas aeruginosa L 1498 [10]: 64 microgram/ml
- MIC Pseudomonas aeruginosa L 1138 [11]: 32 microgram/ml
- MIC Pseudomonas aeruginosa L 1348 [12]: 4 microgram/ml
- MIC Pseudomonas aeruginosa L 1533 [13]: 64 microgram/ml
- MIC Streptococcus pyogenes C 203 [1]: 0.06 microgram/ml
- MIC Streptococcus pneumoniae UC 41 [2]: 0.12 microgram/ml
- MIC Staphylococcus haemolyticus L 602 [3]: 0.06 microgram/ml
- MIC Proteus vulgaris X19H ATCC 881 [4]: 64 microgram/ml
- MIC Escherichia coli SKF 12140 [5]: 0.5 microgram/ml
- MIC Streptococcus faecalis ATCC 7080 [6]: 0.25 microgram/ml
- MIC Staphylococcus aureus TOUR [7]: 0.06 microgram/ml
- MIC Staphylococcus epidermidis ATCC 12228 [8]: 0.016 microgram/ml
- MIC Pseudomonas aeruginosa ATCC 10145 [9]: 2 microgram/ml

SMILES: NCCCNCCCCNCCCNC(=O)C1NC(=O)C2NC(=O)C(NC(=O)C3NC(=O)C4NC(=O)C(Cc5ccc(c(Cl)c5)Oc5cc3cc(c5O)Oc3ccc(cc3Cl)C2O)NC(=O)C(N)c2ccc(O)c(c2)Oc2cc(O)cc4c2)c2ccc(O)c(c2)-c2c(O)cc(O)cc21 (stereo not drawn) [Compound 27]
- MIC Pseudomonas aeruginosa L 1498 [10]: 64 microgram/ml
- MIC Pseudomonas aeruginosa L 1138 [11]: 64 microgram/ml
- MIC Pseudomonas aeruginosa L 1348 [12]: 4 microgram/ml
- MIC Pseudomonas aeruginosa L 1533 [13]: 64 microgram/ml
- MIC Streptococcus pyogenes C 203 [1]: 0.06 microgram/ml
- MIC Streptococcus pneumoniae UC 41 [2]: 0.12 microgram/ml
- MIC Staphylococcus haemolyticus L 602 [3]: 0.12 microgram/ml
- MIC Proteus vulgaris X19H ATCC 881 [4]: 64 microgram/ml
- MIC Escherichia coli SKF 12140 [5]: 2 microgram/ml
- MIC Streptococcus faecalis ATCC 7080 [6]: 0.12 microgram/ml
- MIC Staphylococcus aureus TOUR [7]: 0.06 microgram/ml
- MIC Staphylococcus epidermidis ATCC 12228 [8]: 0.06 microgram/ml
- MIC Pseudomonas aeruginosa ATCC 10145 [9]: 8 microgram/ml

SMILES: NCCN(CCN)CCNC(=O)C1NC(=O)C2NC(=O)C(NC(=O)C3NC(=O)C4NC(=O)C(Cc5ccc(c(Cl)c5)Oc5cc3cc(c5O)Oc3ccc(cc3Cl)C2O)NC(=O)C(N)c2ccc(O)c(c2)Oc2cc(O)cc4c2)c2ccc(O)c(c2)-c2c(O)cc(O)cc21 (stereo not drawn) [Compound 29]
- MIC Pseudomonas aeruginosa L 1498 [10]: 64 microgram/ml
- MIC Pseudomonas aeruginosa L 1138 [11]: 64 microgram/ml
- MIC Pseudomonas aeruginosa L 1348 [12]: 8 microgram/ml
- MIC Pseudomonas aeruginosa L 1533 [13]: 128 microgram/ml
- MIC Streptococcus pyogenes C 203 [1]: 0.06 microgram/ml
- MIC Streptococcus pneumoniae UC 41 [2]: 0.12 microgram/ml
- MIC Staphylococcus haemolyticus L 602 [3]: 0.06 microgram/ml
- MIC Proteus vulgaris X19H ATCC 881 [4]: 32 microgram/ml
- MIC Escherichia coli SKF 12140 [5]: 1 microgram/ml
- MIC Streptococcus faecalis ATCC 7080 [6]: 0.12 microgram/ml
- MIC Staphylococcus aureus TOUR [7]: 0.06 microgram/ml
- MIC Staphylococcus epidermidis ATCC 12228 [8]: 0.016 microgram/ml
- MIC Pseudomonas aeruginosa ATCC 10145 [9]: 8 microgram/ml

SMILES: NCCCN(CCCN)CCCNC(=O)C1NC(=O)C2NC(=O)C(NC(=O)C3NC(=O)C4NC(=O)C(Cc5ccc(c(Cl)c5)Oc5cc3cc(c5O)Oc3ccc(cc3Cl)C2O)NC(=O)C(N)c2ccc(O)c(c2)Oc2cc(O)cc4c2)c2ccc(O)c(c2)-c2c(O)cc(O)cc21 (stereo not drawn) [Compound 50]
- MIC Streptococcus pyogenes C 203 [1]: 0.06 microgram/ml
- MIC Streptococcus pneumoniae UC 41 [2]: 0.12 microgram/ml
- MIC Staphylococcus haemolyticus L 602 [3]: 0.06 microgram/ml
- MIC Proteus vulgaris X19H ATCC 881 [4]: 128 microgram/ml
- MIC Escherichia coli SKF 12140 [5]: 1 microgram/ml
- MIC Streptococcus faecalis ATCC 7080 [6]: 0.12 microgram/ml
- MIC Staphylococcus aureus TOUR [7]: 0.12 microgram/ml
- MIC Staphylococcus epidermidis ATCC 12228 [8]: 0.008 microgram/ml
- MIC Pseudomonas aeruginosa ATCC 10145 [9]: 8 microgram/ml
- survivors/treated (E. coli; i.v. administration, 40 mg/kg): 7/8
- ED50 s.c. (E. coli; s.c. administration): ≤ 38 mg/kg
